# Laboratory results taken from ChEMBL document CHEMBL1933031, “Discovery and bioactivity of 4-(2-arylpyrido[3',2':3,4]pyrrolo[1,2-f][1,2,4]triazin-4-yl) morpholine derivatives as novel PI3K inhibitors” (Bioorg Med Chem Lett, 2012).
# Active and inactive are the calls of the source. The rule behind the calls is not given here.
# Experiments:
# [1] = Cell cycle arrest in human Rh30 cells assessed as increase in subG1 cell phase at 10 uM by flow cytometric analysis; assay type: functional, cell-based; settings: SJRH30
# [2] = target: Phosphatidylinositol 4,5-bisphosphate 3-kinase catalytic subunit alpha isoform (Homo sapiens, UniProt P42336); experiment: Inhibition of PI3Kalpha by luminescent kinase assay
# [3] = target: Proto-oncogene tyrosine-protein kinase receptor Ret (Homo sapiens) (UniProt P07949); experiment: Inhibition of RET at 10 uM
# [4] = Cell cycle arrest in human Rh30 cells assessed as increase in G1 cell population at 1 to 10 uM by flow cytometric analysis; assay type: functional, cell-based; settings: SJRH30
# [5] = Inhibition of PI3K-mediated mTOR pathway by Western blot analysis
# MCF7 = experiment: Antiproliferative activity against human MCF7 cells; assay type: functional, cell-based
# [6] = target: Epidermal growth factor receptor (Homo sapiens) (UniProt P00533); settings: at 10 µM
# Description: Inhibition of EGFR at 10 uM
# [7] = Inhibition of PI3K-mediated p70S6K1 phosphorylation at Thr389 at 3 uM by Western blot analysis
# [8] = target: Macrophage-stimulating protein receptor (Homo sapiens) (UniProt Q04912); experiment: Inhibition of RON at 10 uM
# [9] = target: Platelet-derived growth factor receptor alpha (Homo sapiens) (UniProt P16234); experiment: Inhibition of PDGFRalpha at 10 uM
# [10] = target: Hepatocyte growth factor receptor (Homo sapiens) (UniProt P08581); experiment: Inhibition of c-Met at 10 uM
# [11] = target: T1, Ephrin type-B receptor 2 (Homo sapiens) (UniProt P29323); experiment: Inhibition of EPH-B2 at 10 uM
# T1 sequence (whole entry): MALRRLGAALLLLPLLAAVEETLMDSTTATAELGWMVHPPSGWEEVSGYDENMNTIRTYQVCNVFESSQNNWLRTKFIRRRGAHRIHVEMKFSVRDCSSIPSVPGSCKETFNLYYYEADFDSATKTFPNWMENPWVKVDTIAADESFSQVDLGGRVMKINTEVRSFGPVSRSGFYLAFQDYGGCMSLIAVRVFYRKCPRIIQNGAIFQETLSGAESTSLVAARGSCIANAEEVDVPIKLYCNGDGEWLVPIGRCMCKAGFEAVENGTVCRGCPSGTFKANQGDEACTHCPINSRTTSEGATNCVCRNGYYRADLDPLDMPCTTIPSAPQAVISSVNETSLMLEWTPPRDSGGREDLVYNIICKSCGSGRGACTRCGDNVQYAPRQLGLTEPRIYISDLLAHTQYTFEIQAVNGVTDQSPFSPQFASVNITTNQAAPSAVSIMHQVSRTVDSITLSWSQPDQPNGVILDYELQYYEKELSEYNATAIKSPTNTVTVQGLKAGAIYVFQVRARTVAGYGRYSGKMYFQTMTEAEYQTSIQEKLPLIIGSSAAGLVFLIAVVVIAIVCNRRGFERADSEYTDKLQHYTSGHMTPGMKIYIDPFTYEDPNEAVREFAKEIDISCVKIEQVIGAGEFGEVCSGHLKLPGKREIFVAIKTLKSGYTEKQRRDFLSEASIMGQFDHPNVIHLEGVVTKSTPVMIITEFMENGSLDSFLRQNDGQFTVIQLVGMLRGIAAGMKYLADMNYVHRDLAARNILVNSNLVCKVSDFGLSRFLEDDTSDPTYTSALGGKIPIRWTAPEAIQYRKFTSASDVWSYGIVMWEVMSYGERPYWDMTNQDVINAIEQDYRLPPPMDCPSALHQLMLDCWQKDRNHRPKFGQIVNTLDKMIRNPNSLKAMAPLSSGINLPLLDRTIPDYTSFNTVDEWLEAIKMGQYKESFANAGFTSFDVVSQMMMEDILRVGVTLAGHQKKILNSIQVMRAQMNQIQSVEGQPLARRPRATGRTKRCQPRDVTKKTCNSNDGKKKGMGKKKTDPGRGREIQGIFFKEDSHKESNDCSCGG
# [12] = Antiproliferative activity against human BEL-7402 cells
# [13] = Inhibition of PI3K-mediated Akt phosphorylation at Ser473 at 3 uM by Western blot analysis
# [14] = target: Insulin-like growth factor 1 receptor (Homo sapiens) (UniProt P08069); experiment: Inhibition of IGF1R at 10 uM
# [15] = target: Proto-oncogene tyrosine-protein kinase Src (Homo sapiens) (UniProt P12931); settings: at 10 µM
# Description: Inhibition of c-Src at 10 uM
# [16] = target: Platelet-derived growth factor receptor beta (Homo sapiens) (UniProt P09619); experiment: Inhibition of PDGFRbeta at 10 uM
# [17] = target: Vascular endothelial growth factor receptor 2 (Homo sapiens) (UniProt P35968); settings: at 10 µM
# Description: Inhibition of KDR at 10 uM
# HT-29 = experiment: Antiproliferative activity against human HT-29 cells; assay type: functional, cell-based
# [18] = target: Receptor tyrosine-protein kinase erbB-2 (Homo sapiens) (UniProt P04626); experiment: Inhibition of ErbB2 at 10 uM
# [19] = target: Mast/stem cell growth factor receptor Kit (Homo sapiens) (UniProt P10721); experiment: Inhibition of c-Kit at 10 uM
# [20] = Inhibition of PI3K-mediated Akt pathway by Western blot analysis
# ECV-304 = experiment: Antiproliferative activity against human ECV304 cells; assay type: functional, cell-based
# Chain of Epidermal growth factor receptor (Homo sapiens) (P00533 whole entry): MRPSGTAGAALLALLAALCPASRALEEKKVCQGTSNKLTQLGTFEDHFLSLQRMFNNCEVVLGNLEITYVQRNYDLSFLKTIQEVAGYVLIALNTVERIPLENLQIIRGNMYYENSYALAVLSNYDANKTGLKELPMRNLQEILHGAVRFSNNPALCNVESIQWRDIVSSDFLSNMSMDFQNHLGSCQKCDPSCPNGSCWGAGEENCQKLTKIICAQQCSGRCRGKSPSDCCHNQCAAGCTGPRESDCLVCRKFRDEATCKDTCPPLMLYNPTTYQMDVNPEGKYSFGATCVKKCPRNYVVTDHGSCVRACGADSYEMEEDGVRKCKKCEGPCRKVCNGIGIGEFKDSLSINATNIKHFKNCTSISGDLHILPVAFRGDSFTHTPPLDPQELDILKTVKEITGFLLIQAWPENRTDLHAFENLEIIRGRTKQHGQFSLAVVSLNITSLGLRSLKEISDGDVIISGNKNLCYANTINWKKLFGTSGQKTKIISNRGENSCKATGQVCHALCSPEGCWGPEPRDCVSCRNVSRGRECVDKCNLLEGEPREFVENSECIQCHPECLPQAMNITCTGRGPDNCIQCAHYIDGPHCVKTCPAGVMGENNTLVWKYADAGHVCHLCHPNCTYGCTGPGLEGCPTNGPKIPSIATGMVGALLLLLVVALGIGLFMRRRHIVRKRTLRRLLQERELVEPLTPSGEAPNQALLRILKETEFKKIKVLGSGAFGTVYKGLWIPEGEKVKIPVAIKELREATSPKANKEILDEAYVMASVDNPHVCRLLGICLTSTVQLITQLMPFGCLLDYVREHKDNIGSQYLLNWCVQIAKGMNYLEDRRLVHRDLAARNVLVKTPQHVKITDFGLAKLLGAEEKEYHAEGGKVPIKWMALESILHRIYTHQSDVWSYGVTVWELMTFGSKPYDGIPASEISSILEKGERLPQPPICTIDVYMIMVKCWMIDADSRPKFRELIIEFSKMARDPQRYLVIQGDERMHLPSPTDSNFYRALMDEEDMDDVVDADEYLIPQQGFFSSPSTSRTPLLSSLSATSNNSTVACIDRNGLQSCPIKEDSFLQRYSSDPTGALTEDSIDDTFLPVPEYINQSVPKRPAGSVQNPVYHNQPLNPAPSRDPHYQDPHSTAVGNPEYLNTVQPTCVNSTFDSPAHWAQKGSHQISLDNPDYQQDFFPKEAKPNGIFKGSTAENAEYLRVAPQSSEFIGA
# Chain of Vascular endothelial growth factor receptor 2 (Homo sapiens) (P35968 whole entry): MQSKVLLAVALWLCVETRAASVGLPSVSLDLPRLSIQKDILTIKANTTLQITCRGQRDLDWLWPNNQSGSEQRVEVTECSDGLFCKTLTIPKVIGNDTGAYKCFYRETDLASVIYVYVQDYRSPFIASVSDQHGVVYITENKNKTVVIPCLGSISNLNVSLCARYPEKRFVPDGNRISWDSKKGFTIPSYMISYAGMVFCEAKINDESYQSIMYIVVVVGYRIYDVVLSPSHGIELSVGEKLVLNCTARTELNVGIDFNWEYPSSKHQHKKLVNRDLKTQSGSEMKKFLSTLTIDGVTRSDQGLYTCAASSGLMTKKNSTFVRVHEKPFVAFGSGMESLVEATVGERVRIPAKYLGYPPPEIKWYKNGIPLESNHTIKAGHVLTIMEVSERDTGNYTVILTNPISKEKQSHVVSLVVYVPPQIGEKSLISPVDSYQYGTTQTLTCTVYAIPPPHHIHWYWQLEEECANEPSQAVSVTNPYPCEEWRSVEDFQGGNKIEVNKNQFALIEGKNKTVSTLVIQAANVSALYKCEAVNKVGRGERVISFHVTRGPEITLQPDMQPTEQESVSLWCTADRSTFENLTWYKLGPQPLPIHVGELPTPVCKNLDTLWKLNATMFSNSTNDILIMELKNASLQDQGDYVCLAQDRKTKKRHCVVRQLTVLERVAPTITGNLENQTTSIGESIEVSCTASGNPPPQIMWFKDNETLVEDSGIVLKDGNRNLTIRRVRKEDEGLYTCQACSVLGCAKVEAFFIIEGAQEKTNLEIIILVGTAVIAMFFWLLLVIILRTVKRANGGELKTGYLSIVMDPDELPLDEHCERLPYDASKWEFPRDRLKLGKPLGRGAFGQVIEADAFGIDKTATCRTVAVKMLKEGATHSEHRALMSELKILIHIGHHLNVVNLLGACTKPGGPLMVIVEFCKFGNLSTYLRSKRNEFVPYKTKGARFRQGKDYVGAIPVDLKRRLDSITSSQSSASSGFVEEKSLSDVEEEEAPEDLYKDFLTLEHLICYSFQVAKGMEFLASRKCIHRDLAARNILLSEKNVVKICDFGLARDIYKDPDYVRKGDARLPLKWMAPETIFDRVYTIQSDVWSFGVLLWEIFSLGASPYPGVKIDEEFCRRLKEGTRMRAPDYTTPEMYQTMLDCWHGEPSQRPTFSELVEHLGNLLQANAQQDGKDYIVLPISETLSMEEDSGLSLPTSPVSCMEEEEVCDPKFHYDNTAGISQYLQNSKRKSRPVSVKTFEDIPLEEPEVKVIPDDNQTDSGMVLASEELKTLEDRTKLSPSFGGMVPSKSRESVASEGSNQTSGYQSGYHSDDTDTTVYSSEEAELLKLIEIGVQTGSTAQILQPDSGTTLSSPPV
# Chain of Platelet-derived growth factor receptor alpha (Homo sapiens) (P16234 whole entry): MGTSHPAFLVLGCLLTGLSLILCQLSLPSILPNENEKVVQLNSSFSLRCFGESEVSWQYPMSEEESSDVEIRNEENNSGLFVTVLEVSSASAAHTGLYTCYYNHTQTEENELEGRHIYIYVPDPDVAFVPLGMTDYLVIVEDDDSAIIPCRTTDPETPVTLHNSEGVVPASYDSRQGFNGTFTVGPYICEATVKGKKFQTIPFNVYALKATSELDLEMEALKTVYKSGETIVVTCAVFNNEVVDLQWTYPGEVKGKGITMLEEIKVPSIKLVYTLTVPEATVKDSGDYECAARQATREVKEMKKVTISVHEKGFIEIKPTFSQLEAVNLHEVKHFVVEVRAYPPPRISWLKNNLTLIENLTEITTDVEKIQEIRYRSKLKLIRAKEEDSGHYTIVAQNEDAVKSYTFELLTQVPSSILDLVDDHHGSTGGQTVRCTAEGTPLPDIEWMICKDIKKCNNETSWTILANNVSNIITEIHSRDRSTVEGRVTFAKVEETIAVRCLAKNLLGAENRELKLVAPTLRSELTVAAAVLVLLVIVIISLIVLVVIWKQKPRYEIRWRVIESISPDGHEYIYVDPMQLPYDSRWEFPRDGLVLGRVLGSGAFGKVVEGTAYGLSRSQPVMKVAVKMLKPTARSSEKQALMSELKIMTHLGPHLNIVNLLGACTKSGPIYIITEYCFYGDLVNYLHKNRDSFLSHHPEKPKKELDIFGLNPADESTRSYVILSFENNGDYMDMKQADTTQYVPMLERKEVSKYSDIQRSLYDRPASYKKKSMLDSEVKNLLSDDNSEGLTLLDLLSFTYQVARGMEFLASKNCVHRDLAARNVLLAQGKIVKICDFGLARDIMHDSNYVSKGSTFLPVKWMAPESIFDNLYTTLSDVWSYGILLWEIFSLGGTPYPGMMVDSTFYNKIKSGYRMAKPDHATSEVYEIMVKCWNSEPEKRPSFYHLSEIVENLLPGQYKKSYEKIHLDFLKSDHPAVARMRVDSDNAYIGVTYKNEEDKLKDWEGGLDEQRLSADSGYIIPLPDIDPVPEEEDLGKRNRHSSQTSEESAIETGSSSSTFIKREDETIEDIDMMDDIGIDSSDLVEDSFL
# Chain of Mast/stem cell growth factor receptor Kit (Homo sapiens) (P10721 whole entry): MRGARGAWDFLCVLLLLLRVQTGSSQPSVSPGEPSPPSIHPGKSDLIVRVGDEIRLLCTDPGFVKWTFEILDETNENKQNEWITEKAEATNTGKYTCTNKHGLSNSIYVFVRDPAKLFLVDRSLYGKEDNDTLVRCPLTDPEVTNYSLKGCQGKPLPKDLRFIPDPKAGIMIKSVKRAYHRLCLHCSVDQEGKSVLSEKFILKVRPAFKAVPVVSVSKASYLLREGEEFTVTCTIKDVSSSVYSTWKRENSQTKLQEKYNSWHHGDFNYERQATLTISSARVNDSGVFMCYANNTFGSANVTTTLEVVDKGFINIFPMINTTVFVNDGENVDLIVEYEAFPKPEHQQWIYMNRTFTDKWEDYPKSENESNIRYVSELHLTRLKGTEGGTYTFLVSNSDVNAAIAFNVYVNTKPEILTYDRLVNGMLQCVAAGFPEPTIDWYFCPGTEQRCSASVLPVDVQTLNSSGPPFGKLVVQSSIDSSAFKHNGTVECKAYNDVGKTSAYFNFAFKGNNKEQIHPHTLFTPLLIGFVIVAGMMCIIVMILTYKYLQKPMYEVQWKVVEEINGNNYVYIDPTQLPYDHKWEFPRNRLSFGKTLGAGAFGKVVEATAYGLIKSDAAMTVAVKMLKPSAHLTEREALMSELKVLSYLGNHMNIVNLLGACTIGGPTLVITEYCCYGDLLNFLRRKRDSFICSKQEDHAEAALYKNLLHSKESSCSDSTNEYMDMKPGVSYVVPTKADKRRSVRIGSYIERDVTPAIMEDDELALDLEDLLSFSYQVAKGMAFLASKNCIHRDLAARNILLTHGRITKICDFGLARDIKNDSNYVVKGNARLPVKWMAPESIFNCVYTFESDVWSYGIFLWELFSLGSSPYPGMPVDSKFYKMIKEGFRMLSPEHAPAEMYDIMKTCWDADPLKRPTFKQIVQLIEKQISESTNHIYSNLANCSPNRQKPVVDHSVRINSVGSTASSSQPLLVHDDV
IC50 [2] [µM],inhibition [3] [%],mTOR pathway inhibition (qualitative) [5],IC50 (MCF7) [µM],inhibition [6] [%],inhibition [7],inhibition [8] [%],inhibition [9] [%],inhibition [10] [%],inhibition [11] [%],IC50 [12] [µM],inhibition [13],inhibition [14] [%],inhibition [16] [%],IC50 (HT-29) [µM],inhibition [18] [%],inhibition [19] [%],SMILES,Activity [1],Activity [4],IC50 (ECV-304) [µM],other results
0.544,43,Dose-dependent effect,18.7,26.8,Active,17.6,13,31.7,48.6,8.6,Active,23.7,11.8,30.4,12.5,29,CCC(=O)Oc1cccc(-c2nc(N3CCOCC3)c3cc4ncccc4n3n2)c1,Active,Active,4,inhibition [15]: 52.8%; inhibition [17]: 25%; Akt pathway inhibition (qualitative) [20]: Dose-dependent effect
0.0497,19,Dose-dependent effect,14.4,4.6,Active,9.4,21.8,29,37.2,12.1,Active,33.4,0,> 50,7.1,24.7,CC(=O)Oc1cccc(-c2nc(N3CCOCC3)c3cc4ncccc4n3n2)c1,Active,Active,3.8,inhibition [15]: 40%; inhibition [17]: 23.1%; Akt pathway inhibition (qualitative) [20]: Dose-dependent effect
0.425,22.8,Dose-dependent effect,12.8,11.8,inactive,4.2,22.2,32.5,35.8,9.3,inactive,29.2,13.5,21.6,23.6,26.9,O=C(Oc1cccc(-c2nc(N3CCOCC3)c3cc4ncccc4n3n2)c1)c1ccco1,Active,Active,6,inhibition [15]: 47.9%; inhibition [17]: 24.7%; Akt pathway inhibition (qualitative) [20]: Dose-dependent effect
0.511,25.8,Dose-dependent effect,6.1,16,Active,7.4,14,33.9,53,3.6,Active,15.6,5.1,16.4,12.5,25.4,CCCC(=O)Oc1cccc(-c2nc(N3CCOCC3)c3cc4ncccc4n3n2)c1,Active,Active,1.4,inhibition [15]: 48.2%; inhibition [17]: 25.6%; Akt pathway inhibition (qualitative) [20]: Dose-dependent effect
0.421,28.9,Dose-dependent effect,20,6.2,inactive,27.2,40,34.8,53.8,13.3,inactive,39.8,34.7,28,23.3,45.2,O=C(Oc1cccc(-c2nc(N3CCOCC3)c3cc4ncccc4n3n2)c1)c1ccncc1,Active,Active,10,inhibition [15]: 67.2%; inhibition [17]: 35.4%; Akt pathway inhibition (qualitative) [20]: Dose-dependent effect
–,–,–,–,–,–,52.2,–,61.8,–,–,–,–,–,–,–,–,Cc1[nH]c(/C=C2\C(=O)Nc3ccc(S(=O)(=O)N(C)c4cccc(Cl)c4)cc32)c(C)c1C(=O)N1CCN(C)CC1,–,–,–,–
0.0607,14.4,Dose-dependent effect,7.3,20.2,Active,23.1,28.7,29,49.2,5.6,Active,32.7,13.6,37.5,25.6,24.9,CCCC(CCC)C(=O)Oc1cccc(-c2nc(N3CCOCC3)c3cc4ncccc4n3n2)c1,Active,Active,2.5,inhibition [15]: 49.8%; inhibition [17]: 29.1%; Akt pathway inhibition (qualitative) [20]: Dose-dependent effect
0.0478,31.9,Dose-dependent effect,15.3,17.8,Active,3.3,29.4,32.8,53.4,7.9,Active,41.1,6.3,29.9,21.3,18.9,C=CC(=O)Oc1cccc(-c2nc(N3CCOCC3)c3cc4ncccc4n3n2)c1,Active,Active,4,inhibition [15]: 56.2%; inhibition [17]: 28.4%; Akt pathway inhibition (qualitative) [20]: Dose-dependent effect
–,–,–,–,–,–,–,–,–,–,–,–,–,–,–,78,–,CS(=O)(=O)CCNCc1ccc(-c2ccc3ncnc(Nc4ccc(OCc5cccc(F)c5)c(Cl)c4)c3c2)o1,–,–,–,–
–,84.8,–,–,–,–,–,93,–,–,–,–,–,90.6,–,–,84.8,CCN(CC)CCNC(=O)c1c(C)[nH]c(/C=C2\C(=O)Nc3ccc(F)cc32)c1C,–,–,–,–
–,–,–,–,–,–,–,–,–,89.2,–,–,–,–,–,–,–,Cc1nc(Nc2ncc(C(=O)Nc3c(C)cccc3Cl)s2)cc(N2CCN(CCO)CC2)n1,–,–,–,–
–,–,–,–,–,–,–,–,–,–,–,–,82.2,–,–,–,–,N#C/C(=C\c1ccc(O)c(O)c1)C(=O)c1ccc(O)c(O)c1,–,–,–,–
0.0336,37.8,Dose-dependent effect,22.7,17.4,Active,37,41.2,43.8,44,13.1,Active,35.2,42.4,22.3,10.9,49.4,Oc1cccc(-c2nc(N3CCOCC3)c3cc4ncccc4n3n2)c1,Active,Active,6.7,inhibition [15]: 65.3%; inhibition [17]: 39.2%; Akt pathway inhibition (qualitative) [20]: Dose-dependent effect
–,–,–,22.4,–,–,–,–,–,–,7,–,–,–,> 50,–,–,Oc1cccc(-c2nc(N3CCOCC3)c3oc4ncccc4c3n2)c1 [PI-103],–,Active,6.3,–
